According to patent US20060094698A1, “Self-administered contraceptive injection of oily solution” (priority 2002, published 2006):

Key:
[1] = Pharmacokinetics of etonogestrel esters after one i.m. injection in the rabbit (plasma etonogestrel by LC-MSMS); type: in vivo; details: for peak levels of etonogestrel: one i.m. injection 20 mg/kg in arachis oil (40 mg/ml), rabbit plasma
Protocol: For the determination of the pharmacokinetic profile of the different etonogestrel-esters after parenteral application, i.m. application in the castrated rabbit model was chosen instead of s.c. Briefly, rabbits were injected once (day 1) with indicated etonogestrel-esters at 20 mg/kg in arachis oil (with a concentration of 40 mg/ml). At day 1, 2, 3, 4, 5, 6, 7, 8, 10, 12, 14, 21, 28, 35, 49, 63, 77, 92, 106, 120 and 133 blood was collected from the ear arteria, in EDTA-containing tubes. EDTA plasma was prepared (1500 g, 15 min) and stored at −20° C. With LC-MSMS, the amount of parent compound (etonogestrel) was determined in these samples. The lower limit of this new assay is 0.5 nmol/l, from 0-250 nmol/l a linear curve was obtained with a correlation coefficient of 0.9998.

[2] = Pharmacokinetics of androgen esters after one s.c. injection in the castrated rabbit (plasma MENT or testosterone by LC-MSMS); type: in vivo; details: one s.c. injection 20 mg/kg in arachis oil (100 mg/ml)
Protocol: For the determination of the pharmacokinetic profile of the different androgen-esters after s.c. application, the castrated rabbit model was selected as the model which is most similar to humans. Briefly, rabbits were injected once (day 1) with indicated androgen-esters at 20 mg/kg in arachis oil (with a concentration of 100 mg/ml). At day 2, 3, 4, 5, 8, 15, 22, 36, 44 and 58 blood was collected from the ear arteria, in EDTA-containing tubes. EDTA plasma was prepared (1500 g, 15 min) and stored at −20° C. With LC-MSMS, the amount of parent compound (testosterone or MENT) was determined in these samples. The lower limit of this new assay is 2 nmol/l, from 0-500 nmol/I a linear curve was obtained with a correlation coefficient of 0.9998.

[3] = Viscosity, Brookfield model DV-III; type: physicochemical
Protocol: (§1) Using these solvents, the following solutions were prepared: • 100 mg/ml etonogestrel undecanoate in the different solvents • 50 mg/ml etonogestrel undecanoate in the different solvents • 200 mg/ml MENT undecanoate in the different solvents • 100 mg/ml MENT undecanoate in the different solvents • 50 mg/ml etonogestrel undecanoate+100 mg/ml MENT undecanoate in the different solvents
(§2) The solubility of the compounds in the solvents was determined visually. The viscosity was determined using a Brookfield model DV-III. The density of the solutions was determined using a Mettler Toledo DA-100M density meter.

[4] = Solubility / appearance of solutions determined visually; details: for solubility (visual) in all four tested solvents: desired concentration 50 mg/ml etonogestrel-undecanoate, 100 mg/ml MENT-undecanoate
Protocol: as §1, §2

[5] = Density, Mettler Toledo DA-100M density meter; type: physicochemical
Protocol: as §1, §2

[6] = one IM injection, hypogonadal men, FIG. 5 (Nieschlag and Behre 1997); cited from earlier work
[7] = one i.m. injection 20 mg/kg in arachis oil, rabbit
[8] = solvent arachis oil + 50% benzyl benzoate, etonogestrel undecanoate 50 mg/ml and/or MENT undecanoate 100 mg/ml
[9] = solvent arachis oil, etonogestrel undecanoate 50 mg/ml and/or MENT undecanoate 100 mg/ml
[10] = solvent ethyl undecanoate + 50% benzyl benzoate, etonogestrel undecanoate 50 mg/ml and/or MENT undecanoate 100 mg/ml
[11] = solvent ethyl undecanoate, etonogestrel undecanoate 50 mg/ml and/or MENT undecanoate 100 mg/ml

## C#CC1(OC(=O)CCCCCCCCC)CCC2C3CCC4=CC(=O)CCC4C3C(=C)CC21CC (centres unmarked) [etonogestrel decanoate]
[1]
  peak levels of etonogestrel: 24 nmol/L
[1]; [7]
  time of initial peak level of etonogestrel: 5 days

## C#C[C@]1(OC(=O)CCCCCC)CC[C@H]2[C@@H]3CCC4=CC(=O)CC[C@@H]4[C@H]3C(=C)C[C@@]21CC [Etonogestrel-heptanoate]
[1]
  peak levels of etonogestrel: 120 nmol/L

## C#C[C@]1(OC(=O)CCCCCCCCCCCC)CC[C@H]2[C@@H]3CCC4=CC(=O)CC[C@@H]4[C@H]3C(=C)C[C@@]21CC [etonogestrel tridecanoate]
[1]
  peak levels of etonogestrel: no initial levels of etonogestrel were observed

## CCCCCCC(=O)O[C@H]1CC[C@H]2[C@@H]3CCC4=CC(=O)CC[C@]4(C)[C@H]3CC[C@]12C [Testosterone enanthate, testosterone enanthate]
[2]
  pharmacokinetic profile of released MENT or testosterone: high peak of testosterone

## C#C[C@]1(O)CC[C@H]2[C@@H]3CCC4=CC(=O)CC[C@@H]4[C@H]3C(=C)C[C@@]21CC [etonogestrel, (17α)-13-ethyl-17-hydroxy-11-methylene-18,19-dinorpregn-4-en-20-yn-3-one, reference compound]
[1]
  peak levels of etonogestrel: 200 nmol/L
[1]; [7]
  time in which etonogestrel levels declined to below 1 nmol/l: 28 days

## CCCCCCCCCCC(=O)O[C@H]1CC[C@H]2[C@H]3[C@H](CC[C@]12C)[C@H]1CCC(=O)C=C1C[C@H]3C [MENT-undecanoate]
[3]; [8]
  Viscosity: 35.0 cps
[3]; [9]
  Viscosity: 97.2 cps
[3]; [10]
  Viscosity: 6.1 cps
[3]; [11]
  Viscosity: 4.0 cps
[4]; 200 mg/ml in arachis oil
  heating temperature necessary to dissolve: approximately 50 °C
[4]
  solubility (visual) in all four tested solvents: could be dissolved at two times the desired concentration
[4]; [8]
  Appearance: Clear yellowish solution
[4]; [9]
  Appearance: Clear yellowish solution
[4]; [10]
  Appearance: Clear colourless solution
[4]; [11]
  Appearance: Clear colourless solution
[5]; [8]
  Density: 1.009 g/mL
[5]; [9]
  Density: 0.924 g/mL
[5]; [10]
  Density: 0.979 g/mL
[5]; [11]
  Density: 0.879 g/mL

## CCCCCCCCCCC(=O)O[C@H]1CC[C@H]2[C@@H]3CCC4=CC(=O)CC[C@]4(C)[C@H]3CC[C@]12C [testosterone undecanoate]
[6]
  pharmacokinetics of serum testosterone in humans: low initial release and steady-state levels of long duration

## C#C[C@]1(OC(=O)CCCCCCCCCC)CC[C@H]2[C@@H]3CCC4=CC(=O)CC[C@@H]4[C@H]3C(=C)C[C@@]21CC [etonogestrel undecanoate]
[1]
  peak levels of etonogestrel: 13 nmol/L
[1]; [7]
  duration of action (etonogestrel levels above 1 nmol/l): more than 92 days
[3]; [8]
  Viscosity: 28.1 cps
[3]; [9]
  Viscosity: 76.6 cps
[3]; [10]
  Viscosity: 4.7 cps
[3]; [11]
  Viscosity: 3.2 cps
[4]
  solubility (visual) in all four tested solvents: could be dissolved at two times the desired concentration
[4]; [8]
  Appearance: Clear yellowish solution
[4]; [9]
  Appearance: Clear yellowish solution
[4]; [10]
  Appearance: Clear colourless solution
[4]; [11]
  Appearance: Clear colourless solution
[5]; [8]
  Density: 1.006 g/mL
[5]; [9]
  Density: 0.919 g/mL
[5]; [10]
  Density: 0.978 g/mL
[5]; [11]
  Density: 0.870 g/mL

## CCCCCCCCCCC(=O)OCC [Ethyl undecanoate]
[3]; solvent alone
  Viscosity: 2.6
[4]; solvent alone
  Appearance: Clear colourless solution
[5]; solvent alone
  Density: 0.861

## C#C[C@]1(OC(=O)CCCCCCCCCCC)CC[C@H]2[C@@H]3CCC4=CC(=O)CC[C@@H]4[C@H]3C(=C)C[C@@]21CC [etonogestrel dodecanoate]
[1]
  peak levels of etonogestrel: 9 nmol/L
[1]; [7]
  time of initial peak level of etonogestrel: 8 days

## C#C[C@]1(OC(=O)CCCCCCCC)CC[C@H]2[C@@H]3CCC4=CC(=O)CC[C@@H]4[C@H]3C(=C)C[C@@]21CC [Etonogestrel-nonanoate]
[1]
  peak levels of etonogestrel: lower peak levels
[1]; [7]
  duration of action (etonogestrel levels above 1 nmol/l): extended duration
